In brackets after ≈: the same amount, converted by molar mass.
Tested on: antibody raised against Immunogen 2 (Example 9), Tracer 1
Experiment: Competitive assay (ELISA) for cross-reactivity measurement
Format: binding, sheep
Conditions: for CCR (competitive cross reactivity): Table 1, antibodies raised against Immunogen 2, Tracer 1, relative to methoxetamine = 100%, summarised from FIGS. 5 to 7; for Antibody binding, in words: Table 1 and FIGS. 5 to 7, antibody of the invention; for IC50 used in % CCR calculation: standard concentration giving 50% inhibition of maximal signal
[1] = FIG. 5 (antibody derived from sheep 1)

Structure (SMILES)	CCR (competitive cross reactivity)	Antibody binding, in words	IC50 used in % CCR calculation [1]	% CCR (compared to methoxetamine) (FIG. 5 (antibody derived from sheep 1), IC50 methoxetamine / IC50 analyte x 100)
CNC1(c2ccccc2Cl)CCCCC1=O (stereo not drawn) [Ketamine]	<5.00%	does not bind		
CCNC1(c2cccc(OC)c2)CCCCC1=O (stereo not drawn) [Methoxetamine, 2-(3-methoxyphenyl)-2-(ethylamino)cyclohexanone]	100.00%	high affinity	0.47 ng/mL (≈ 1.9 nM)	
COc1cccc(C2(N)CCCCC2=O)c1 (stereo not drawn) [N-desethylmethoxetamine, 2-amino-2-(3-methoxyphenyl)cyclohexanone]	>5.00%	substantial binding	1.96 ng/mL (≈ 8.94 nM)	24%
NC1(c2ccccc2Cl)CCCCC1=O (stereo not drawn) [Norketamine]	<5.00%			
c1ccc(C2(N3CCCCC3)CCCCC2)cc1 [Phencyclidine]	<5.00%	does not bind		
CCOC(=O)C1(c2ccccc2)CCC=CC1N(C)C (stereo not drawn) [Tilidine]	<5.00%			
COc1cccc(C2(O)CCCCC2CN(C)C)c1 (stereo not drawn) [Tramadol]	<5.00%	does not bind		
